US12194033B2, “Glycine receptor modulators and methods of use” (University of Pittsburgh—Of the Commonwealth System of …, priority 2017, dated 2025)
“And” between values parts separate entries of the source, which are not always exact repeats. Identical values can stand only once.

How the values were obtained:
CD1 mice = experiment: Hargreaves test under CFA-induced hyperalgesic conditions in CD1 mice; format: in vivo
Description: Under CFA-induced hyperalgesic conditions, the maximum possible effect, % MPE=(response−baseline)/(cut-off time−baseline), was measured for the application of compound 1 alone (0.05 mg/kg, blue, n=12; 0.01 mg/kg, orange, n=4), morphine alone (0.1 mg/kg, green, n=8), and compound 1 with morphine at three different dosage combinations: 0.05 mg/kg compound 1 with 0.1 mg/kg morphine (light blue, n=6), 0.01 mg/kg compound 1 with 0.1 mg/kg morphine (pink, n=10), and 0.01 mg/kg compound 1 with 0.01 mg/kg morphine (red, n=4). […] Error bars designate the standard error of the mean.
0.05 mg/kg compound 1 was tested for tolerance in CFA-treated mice (red). Under CFA-induced hyperalgesic conditions (24 hours post-application of CFA), 0.05 mg/kg compound 1 was administered to CD1 mice and responses to the Hargreaves test were measured immediately after the initial injection (application time=0) and again after a repeated dose given 1.5 hours (FIG. 7A) or 24 hours (FIG. 7B) after the effects of the first dose wore off. The black circles represent the responses of naïve mice (i.e., no administration of compound 1 or CFA), and the red circles represent the responses of mice receiving compound 1 under CFA-induced hyperalgesic conditions. […] Error bars designate the standard error of the mean (n=4).
Responses of CD1 mice to the Hargreaves test were assessed after application of 0.1 mg/kg of the indicated compounds (black) or vehicle (white) under CFA-induced hyperalgesic conditions as shown in FIGS. 8A-8H. The assessed compounds were compounds 1 (8A), 2 (8B), 3 (8C), 4 (8D), 5 (8E), 6 (8F), 7 (8G), and 8 (8H). […] Error bars designate the standard error of the mean (n≥4).
Dose response curves from the Hargreaves test in mice with a CFA-inflamed left hind paw at 1.5 and 2 hr after intraperitoneal injection of compound 1. Percent Maximum Possible Effect (% MPE) was calculated from paw withdrawal latencies.
Tolerance to compound 1 (MJPY1) and compound 3 (MJPY2) was measured by repeated dosing in the Hargreaves Test. […] Mice (n=6/group) received repeated i.p. injections of vehicle or 0.1 mg/kg compound 1 (MJPY1) or compound 3 (MJPY2) once a day for 5 days. CFA inflammation was induced on day 4, and PWL was measured 0.5 hr before and every 10 min after treatment on day 5. Data were binned to 30-min blocks (mean±SEM).

[1] = tested on: TA100 strain Salmonella typhimurium; experiment: In vitro Ames test; format: cell-based; details: S9 rat liver extract
Description: Toxicity was evaluated using in vitro Ames test and in vivo immune responses flow cytometry. Compound 1 (MJPY1) at each concentration was tested in three 48-well plates using the TA100 strain Salmonella typhimurium and S9 rat liver extract for base-pair substitution mutations. Error bars represent SEM. Significance (p<0.05) was evaluated compared to the control (0 μM) using one-way ANOVA with the Bonferroni post-hoc test. FIGS. 15A and 15B show flow cytometry evaluation of common inflammatory markers in the liver and spleen of mice in response to compound 1 (MJPY1) treatment. Mice received either 2 mg/kg of MJPY1 (right) or vehicle (left) ˜16 hours prior to sacrifice and tissue collection. Significant differences between the treatment and control were observed only for decreased CD11b+ in the liver of mice treated with MJPY1 (p<0.001). […] Results were analyzed by one-way ANOVA with Bonferroni post-hoc test.

4 2-nAChR = 4 2-nAChR (Homo sapiens, UniProt P17787+P43681); experiment: Radioligand binding assay, off-target profiling; details: 10 M MJPY1, mean, n = 4
4 2-nAChR, sequence (P43681 29-627 limits assumed): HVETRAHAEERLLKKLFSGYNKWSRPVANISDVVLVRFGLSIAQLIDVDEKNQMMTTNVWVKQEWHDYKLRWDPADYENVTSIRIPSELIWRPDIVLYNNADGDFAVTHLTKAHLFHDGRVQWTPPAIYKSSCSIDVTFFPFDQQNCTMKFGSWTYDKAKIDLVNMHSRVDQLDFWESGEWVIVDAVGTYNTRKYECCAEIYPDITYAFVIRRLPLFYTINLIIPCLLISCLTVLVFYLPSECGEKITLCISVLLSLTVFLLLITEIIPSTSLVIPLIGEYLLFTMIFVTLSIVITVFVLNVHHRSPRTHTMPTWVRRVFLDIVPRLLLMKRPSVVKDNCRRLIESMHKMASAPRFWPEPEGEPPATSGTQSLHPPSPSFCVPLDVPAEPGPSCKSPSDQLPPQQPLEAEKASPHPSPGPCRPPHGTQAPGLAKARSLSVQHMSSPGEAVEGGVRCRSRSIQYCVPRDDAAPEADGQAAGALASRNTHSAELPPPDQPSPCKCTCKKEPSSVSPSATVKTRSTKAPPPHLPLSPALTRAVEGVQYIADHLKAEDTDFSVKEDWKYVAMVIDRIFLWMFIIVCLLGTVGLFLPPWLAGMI
4 2-nAChR, sequence (P17787 26-502): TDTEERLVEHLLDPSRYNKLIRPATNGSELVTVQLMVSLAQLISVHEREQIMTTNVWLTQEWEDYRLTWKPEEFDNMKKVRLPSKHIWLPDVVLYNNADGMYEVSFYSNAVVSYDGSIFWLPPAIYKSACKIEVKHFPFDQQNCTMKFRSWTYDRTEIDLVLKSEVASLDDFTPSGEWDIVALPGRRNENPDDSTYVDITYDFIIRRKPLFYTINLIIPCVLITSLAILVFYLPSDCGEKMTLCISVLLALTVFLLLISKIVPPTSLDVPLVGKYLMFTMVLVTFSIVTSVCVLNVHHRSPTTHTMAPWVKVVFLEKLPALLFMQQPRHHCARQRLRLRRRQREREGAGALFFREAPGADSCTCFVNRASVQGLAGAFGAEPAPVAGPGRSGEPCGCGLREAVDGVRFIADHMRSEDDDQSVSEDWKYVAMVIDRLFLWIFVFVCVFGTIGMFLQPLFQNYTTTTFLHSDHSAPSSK

MOR = MOR (Homo sapiens, UniProt P35372); experiment: Radioligand binding assay, off-target profiling; details: 10 M MJPY1, mean, n = 4
MOR, sequence (P35372 whole entry): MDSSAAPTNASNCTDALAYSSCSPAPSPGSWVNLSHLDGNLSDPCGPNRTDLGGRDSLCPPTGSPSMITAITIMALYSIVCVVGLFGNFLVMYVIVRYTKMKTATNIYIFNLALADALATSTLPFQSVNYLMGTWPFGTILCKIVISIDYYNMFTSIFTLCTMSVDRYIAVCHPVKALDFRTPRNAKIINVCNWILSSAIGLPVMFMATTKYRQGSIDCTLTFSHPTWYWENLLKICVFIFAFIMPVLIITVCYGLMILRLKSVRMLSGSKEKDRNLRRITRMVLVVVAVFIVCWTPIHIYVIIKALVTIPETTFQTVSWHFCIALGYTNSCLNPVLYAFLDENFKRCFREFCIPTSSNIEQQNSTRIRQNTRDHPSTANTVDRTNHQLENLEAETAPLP

NOR = NOR (Homo sapiens, UniProt P41146); experiment: Radioligand binding assay, off-target profiling; details: 10 M MJPY1, mean, n = 4
NOR, sequence (P41146 whole entry): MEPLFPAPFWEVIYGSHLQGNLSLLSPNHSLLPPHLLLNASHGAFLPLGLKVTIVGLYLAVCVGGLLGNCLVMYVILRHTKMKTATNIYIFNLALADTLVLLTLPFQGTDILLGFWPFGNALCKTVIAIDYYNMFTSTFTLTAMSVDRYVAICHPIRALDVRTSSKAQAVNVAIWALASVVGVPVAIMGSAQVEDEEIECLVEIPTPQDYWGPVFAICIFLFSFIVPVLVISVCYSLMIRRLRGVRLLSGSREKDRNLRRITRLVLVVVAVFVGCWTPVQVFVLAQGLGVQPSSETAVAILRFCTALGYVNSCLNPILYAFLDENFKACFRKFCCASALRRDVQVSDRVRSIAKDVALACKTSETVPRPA

NC(=O)c1cccc(CNC(=O)c2ccc3c4c(cccc24)CC3)c1 [compound 1, N-[(3-carbamoylphenyl)-methyl]-1,2-dihydroacenaphthylene-5-carboxamide]
tolerance (time to paw withdrawal, first vs second dosing) (CD1 mice; 0.05 mg/kg, CD1 mice, CFA, repeated dose 1.5 or 24 hours after first dose wore off): No tolerance | tolerance after repeated dosing (PWL) (CD1 mice; 0.1 mg/kg i.p. once a day for 5 days, CFA on day 4): negligible tolerance | response time for paw withdrawal compared to vehicle (CD1 mice; 0.1 mg/kg, CD1 mice, CFA-induced hyperalgesic conditions): increase in the response time | EC50 for inflammatory pain (% MPE dose response, Hill fit) (CD1 mice; CFA-inflamed left hind paw, 1.5 and 2 hr after intraperitoneal injection (both time points), CD1 mice): ~0.030 mg/kg and ~0.03 mg/kg | mutagenic activity (base-pair substitution mutations) [1]: little mutagenic activity | % Inhibition 4 2-nAChR (4 2-nAChR): −1.8% | % Inhibition MOR (MOR): 20.6% | % Inhibition NOR (NOR): −16.8%
